{"source": "patent US20090215748A1", "about": "“FXR agonists for treating vitamin D associated diseases” (Wyeth, priority 2007, published 2009)", "format_in_all_cases": "in vivo", "key": {"CYP27B1 [1]": {"system": "CYP27B1", "assay": "Gene profiling of kidneys isolated from KKAy mice treated with Compound A", "experimental": "To examine the role of FXR in the kidney, gene-profiling experiments were performed using kidneys isolated from KKAy mice treated with Compound A. Genes involved in vitamin D synthesis, calcium mobilization, amino acid metabolism, inflammation, oxidative phosphorylation, and nitric oxide production were regulated by Compound A treatment. […] The CYP27B1 gene, expressed in the proximal tubes of the kidney, encodes 25-hydroxyvitamin D3 1α-hydroxylase, which generates the active form of vitamin D, 1α,25-dihydroxyvitamin D3, from a proform of vitamin D, 25 hydroxyvitamin D3."}, "CYP27B1 [2]": {"system": "CYP27B1", "assay": "CYP27B1 expression in wild (WT) mice, 7 day treatment (FIG. 1)"}, "renin": {"system": "renin", "assay": "Renal renin gene expression in KKAy mice, 4 weeks treatment (FIG. 6)", "settings": "once a day for 4 weeks", "description": "Vitamin D and its receptor vitamin D receptor (VDR) may regulate the cardiovascular system. VDR deficient and CYP27B1 deficient mice have increased blood pressure and left ventricle hypertrophy."}, "MMP-14": {"system": "MMP-14", "assay": "MMP-14 gene expression in chow fed KKAy mice, 7 day treatment (FIG. 5)"}, "KKAy mice [3]": {"system": "KKAy mice", "assay": "Serum creatinine level in KKAy mice, 7 days oral dosing (FIG. 3)", "settings": "orally once a day for seven days, not statistically significant"}, "OVX rats": {"system": "OVX rats", "assay": "OVX-induced bone loss in OVX rats", "settings": "3 and 30 mg/kg, 6-10 weeks of treatment", "description": "OVX rats are rats subjected to bilateral ovariectomy, which results in development of osteopenia. Two studies have been conducted to evaluate the effect of one of the FXR agonists disclosed herein, isopropyl 3-(3,4-difluorobenzoyl)-1,1-dimethyl-1,2,3,6-tetrahydroazepino[4,5-b]-indole-5-carboxylate, in OVX rats. […] The exposure level of the compound in bone tissue of the rats was not studied and the EC50 of the compound in bone cells was not studied. Accordingly, the reason for the absence of an observable effect has not been determined."}, "CYP27B1 [4]": {"system": "CYP27B1", "assay": "CYP27B1 gene expression in chow fed KKAy mice, 7 day treatment (FIG. 4)"}, "KKAy mice [5]": {"system": "KKAy mice", "assay": "Hepatic lipid metabolism and deposition in the KKAy model of diabetic nephropathy", "description": "The KKAy mice are diabetic mice characterized by hyperglycemia and insulin resistance and are renally impaired with nodular glomerulosclerosis, mesangial proliferation, and abuminuria that increases with age or with a high cholesterol diet. Abnormal lipid metabolism and renal lipid accumulation may contribute to diabetic nephropathy. Administration of FXR agonist, Compound A (isopropyl 3-(3,4-difluorobenzoyl)-1,1-dimethyl-1,2,3,6-tetrahydroazepino[4,5-b]indole-5-carboxylate) improves hepatic lipid metabolism and deposition in the KKAy model of diabetic nephropathy."}, "CYP27B1 [6]": {"system": "CYP27B1", "assay": "CYP27B1 expression in FXR deficient (FXR KO) mice, 7 day treatment (FIG. 1)"}}}
{"smiles": "CC(C)OC(=O)C1=CN(C(=O)c2ccc(F)c(F)c2)CC(C)(C)c2c1[nH]c1ccccc21", "note": "[Compound A, isopropyl 3-(3,4-difluorobenzoyl)-1,1-dimethyl-1,2,3,6-tetrahydroazepino[4,5-b]indole-5-carboxylate]", "values": [{"measurement": "CYP27B1 gene expression", "setting": "CYP27B1 [1]", "value": "upregulated"}, {"measurement": "expression of CYP27B1, induction", "setting": "CYP27B1 [2]", "value": 15, "unit": "fold"}, {"measurement": "renal renin gene expression", "setting": "renin", "value": "significant reduction"}, {"measurement": "MMP-14 gene expression", "setting": "MMP-14", "value": "decreased"}, {"measurement": "reduction in serum creatinine levels", "setting": "KKAy mice [3]", "value": 20, "unit": "%"}, {"measurement": "effect on preventing or restoring OVX-induced bone loss", "setting": "OVX rats", "value": "did not show any effect"}, {"measurement": "CYP27B1 gene expression", "setting": "CYP27B1 [4]", "value": "upregulated"}, {"measurement": "hepatic lipid metabolism and deposition", "setting": "KKAy mice [5]", "value": "improves"}, {"measurement": "effect on the expression of CYP27B1", "setting": "CYP27B1 [6]", "value": "No effect"}]}
